Legend:
[1] = Mutagenicity in Salmonella typhimurium TA98 incubated for 96 hrs by Ames test; assay type: toxicity; settings: salmonella enterica subsp. enterica serovar typhimurium
[2] = Mutagenicity in Salmonella typhimurium TA100 incubated for 96 hrs by Ames test; assay type: toxicity; settings: salmonella enterica subsp. enterica serovar typhimurium
[3] = Mutagenicity in Salmonella typhimurium TA1537 incubated for 96 hrs by Ames test; assay type: toxicity; settings: salmonella enterica subsp. enterica serovar typhimurium
[4] = Mutagenicity in Salmonella typhimurium TA1535 incubated for 96 hrs by Ames test; assay type: toxicity; settings: salmonella enterica subsp. enterica serovar typhimurium
KU812 cell line = assay: Antiproliferative activity against human KU812 cell line assessed as cell growth inhibition incubated for 72 hrs by Cell Titer-Glo Luminescent assay; assay type: functional, cell-based; settings: KU812, 72 h
MEG-01 = assay: Antiproliferative activity against human MEG-01 cells assessed as cell growth inhibition incubated for 72 hrs by Cell Titer-Glo Luminescent assay; assay type: functional, cell-based; settings: MEG-01, 72 h
SUP-B15 = assay: Antiproliferative activity against human SUP-B15 cells assessed as cell growth inhibition incubated for 72 hrs by Cell Titer-Glo Luminescent assay; assay type: functional, cell-based; settings: SUP-B15, 72 h

Structure (SMILES)	Activity [1]	Activity [2]	Activity [3]	Activity [4]	IC50 (KU812 cell line)	IC50 (MEG-01)	IC50 (SUP-B15)
COc1cc(Nc2c(C#N)cnc3cc(OCCON4CCN(C)CC4)c(OC)cc23)c(Cl)cc1Cl	Non-Toxic	Non-Toxic	Non-Toxic	Non-Toxic	–	–	–
COc1cc(Nc2c(C#N)cnc3cc(OCCCN4CCN(C)CC4)c(OC)cc23)c(Cl)cc1Cl [BOSUTINIB]	–	–	–	–	0.0036 µM	0.013 µM	0.21 µM

Reference: ChEMBL document CHEMBL5370690, “Atypical N-Alkyl to N-Noralkoxy Switch in a Dual cSRC/BCR-ABL1 Kinase Inhibitor Improves Drug Efflux and hERG Affinity” (ACS Med Chem Lett, 2023)
